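Cultured in 96-well plates, cells were exposed to test compound for 48 hours across five concentrations. GI50 is the concentration that inhibits growth by half.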 Activity calls are given as the source filed them. No stated cut-off is given here; in the data, active = GI50 up to about 1.1 µM and inactive = higher.
Columns and labels:
Experiment in all cases: NCI-60 cell line screen, 48 h
NCI-H522 = system: NCI-H522
Malme-3M = system: Malme-3M
LOX IMVI = system: LOX IMVI
EKVX = system: EKVX
HCT-116 = system: HCT-116
SF-295 = system: SF-295
SNB-19 = system: SNB-19
OVCAR-5 = system: OVCAR-5
OVCAR-8 = system: OVCAR-8
NCI-H460 = system: NCI-H460
SF-539 = system: SF-539
ACHN = system: ACHN
U-251 = system: U-251
HOP-92 = system: HOP-92
HOP-62 = system: HOP-62
COLO 205 = system: COLO 205
CAKI-1 = system: CAKI-1
HCC 2998 = system: HCC 2998
SK-MEL-28 = system: SK-MEL-28
HL-60 = system: HL-60

Measured: GI50

CSC(=N)NNC(=O)CCC(=O)Nc1ccccc1C(F)(F)F
inactive: NCI-H522 > 100 µM | Malme-3M > 100 µM | LOX IMVI > 100 µM | EKVX > 100 µM | HCT-116 > 100 µM | SF-295 > 100 µM | SNB-19 > 100 µM | OVCAR-5 > 100 µM | OVCAR-8 > 100 µM | NCI-H460 > 100 µM | SF-539 > 79.8 µM | ACHN > 100 µM | U-251 > 100 µM | HOP-92 > 100 µM | HOP-62 > 100 µM | COLO 205 > 100 µM | CAKI-1 > 100 µM | HCC 2998 > 100 µM | SK-MEL-28 > 100 µM

COC(=O)c1c2n(c3ccccc13)C[C@H]1OC(C)(C)O[C@@H]21
inactive: NCI-H522 > 100 µM | Malme-3M > 47 µM | LOX IMVI > 100 µM | EKVX > 100 µM | HCT-116 > 100 µM | SF-295 > 100 µM | SNB-19 > 100 µM | OVCAR-5 > 100 µM | OVCAR-8 > 100 µM | NCI-H460 > 100 µM | SF-539 > 100 µM | ACHN > 100 µM | U-251 > 100 µM | HOP-92 > 100 µM | HOP-62 > 100 µM | COLO 205 > 100 µM | CAKI-1 > 65.6 µM | HCC 2998 > 100 µM | SK-MEL-28 > 100 µM

CC(=O)OCCCCn1cnc2nc(Nc3ccccc3)nc(Cl)c21
inactive: Malme-3M 83.4 µM | LOX IMVI 67.5 µM | EKVX > 100 µM | HCT-116 72.4 µM | HL-60 > 100 µM | SF-295 57.1 µM | SNB-19 > 100 µM | OVCAR-8 > 100 µM | NCI-H460 > 100 µM | SF-539 > 100 µM | ACHN 60.7 µM | U-251 > 100 µM | HOP-92 51.4 µM | HOP-62 62.7 µM | COLO 205 > 100 µM | CAKI-1 14 µM | HCC 2998 85.3 µM | SK-MEL-28 > 100 µM

OC12c3ccccc3C1CCCCCC21OCCCO1 (stereo unspecified)
inactive: NCI-H522 > 100 µM | Malme-3M > 100 µM | LOX IMVI > 100 µM | HCT-116 > 100 µM | HL-60 11.4 µM | SF-295 > 100 µM | SNB-19 > 100 µM | OVCAR-5 > 100 µM | OVCAR-8 > 100 µM | NCI-H460 > 100 µM | SF-539 > 100 µM | ACHN > 100 µM | U-251 > 100 µM | HOP-62 > 100 µM | COLO 205 > 100 µM | CAKI-1 > 100 µM | SK-MEL-28 > 100 µM

CCN1CCC(O)(/C=C/c2ccccc2C)C(C(=O)/C=C/c2ccccc2C)C1 (stereo unspecified)
inactive: Malme-3M 4.08 µM | LOX IMVI 1.68 µM | EKVX 4.06 µM | HCT-116 1.78 µM | HL-60 2.01 µM | SF-295 2.34 µM | OVCAR-5 1.97 µM | OVCAR-8 2.71 µM | NCI-H460 1.53 µM | SF-539 2.31 µM | U-251 2.34 µM | HOP-92 1.34 µM | HOP-62 1.94 µM | COLO 205 1.64 µM | CAKI-1 1.82 µM | HCC 2998 1.31 µM | SK-MEL-28 2.39 µM

COc1ccc(/C=C/c2cnccn2)cc1OC
inactive: NCI-H522 > 10 µM | Malme-3M > 10 µM | LOX IMVI > 10 µM | EKVX > 10 µM | HCT-116 > 10 µM | SF-295 > 10 µM | SNB-19 > 10 µM | OVCAR-5 > 10 µM | OVCAR-8 > 10 µM | NCI-H460 > 10 µM | SF-539 > 10 µM | ACHN > 10 µM | U-251 > 10 µM | HOP-92 > 10 µM | HOP-62 > 10 µM | COLO 205 > 10 µM | CAKI-1 > 10 µM | HCC 2998 > 10 µM | SK-MEL-28 > 10 µM

O=C(NC1C2CC3CC(C2)CC1C3)c1cc(/C=C/c2ccccc2)nc(S)n1 (stereo unspecified)
inactive: NCI-H522 > 100 µM | Malme-3M > 100 µM | LOX IMVI > 100 µM | EKVX > 100 µM | HCT-116 > 100 µM | HL-60 > 100 µM | SF-295 > 100 µM | SNB-19 > 100 µM | OVCAR-5 > 100 µM | OVCAR-8 > 100 µM | NCI-H460 > 100 µM | SF-539 > 100 µM | ACHN > 100 µM | U-251 > 100 µM | HOP-62 > 100 µM | COLO 205 > 100 µM | CAKI-1 > 100 µM | HCC 2998 > 100 µM | SK-MEL-28 > 100 µM

CCN(CC)CCN(C(=O)c1ccc(F)cc1)c1ccccc1N
inactive: NCI-H522 > 10 µM | Malme-3M > 10 µM | LOX IMVI > 10 µM | EKVX > 10 µM | HCT-116 > 10 µM | HL-60 > 10 µM | SF-295 > 10 µM | SNB-19 > 10 µM | OVCAR-5 > 10 µM | OVCAR-8 > 10 µM | NCI-H460 > 10 µM | SF-539 > 10 µM | ACHN > 10 µM | U-251 > 10 µM | HOP-62 > 10 µM | COLO 205 > 10 µM | CAKI-1 > 10 µM | HCC 2998 > 10 µM | SK-MEL-28 > 10 µM

CCOC(=O)c1c2ccccc2n2c(=O)n(-c3ccccc3)nnc12
inactive: Malme-3M > 100 µM | LOX IMVI 7.93 µM | EKVX > 100 µM | HCT-116 73.8 µM | HL-60 23.8 µM | SF-295 3.25 µM | SNB-19 > 100 µM | OVCAR-5 > 100 µM | OVCAR-8 > 100 µM | NCI-H460 30.7 µM | SF-539 > 96.4 µM | ACHN > 27 µM | U-251 98.4 µM | HOP-92 > 100 µM | HOP-62 27.5 µM | COLO 205 40.7 µM | CAKI-1 > 91.4 µM | HCC 2998 47.1 µM | SK-MEL-28 > 100 µM

Nc1ncnc2c1ncn2C=C=CCO
inactive: Malme-3M > 100 µM | LOX IMVI > 100 µM | HCT-116 > 100 µM | SF-295 > 100 µM | SNB-19 > 100 µM | OVCAR-5 > 100 µM | OVCAR-8 > 100 µM | NCI-H460 > 100 µM | U-251 > 100 µM | HOP-92 > 100 µM | HOP-62 > 100 µM | COLO 205 > 100 µM | CAKI-1 > 100 µM | HCC 2998 > 100 µM | SK-MEL-28 > 100 µM

COc1ccc(-c2nnc(-c3nsc4ccccc34)o2)cc1
inactive: LOX IMVI 47.9 µM | EKVX 38.8 µM | HCT-116 38.4 µM | SNB-19 > 100 µM | OVCAR-5 > 100 µM | OVCAR-8 93.5 µM | NCI-H460 45.4 µM | SF-539 31.2 µM | ACHN 33 µM | U-251 79.6 µM | HOP-92 43.2 µM | HOP-62 44.3 µM | COLO 205 > 100 µM | HCC 2998 77.4 µM | SK-MEL-28 > 100 µM

From ChEMBL document CHEMBL1201862, “PubChem BioAssay data set” (2004)
